# Experiments:
# HIV-1 strain NL4-3 = experiment: Neutralization assay (TZM-bl, pseudovirus), NL4-3 isolate; type: cell-based
# Method: HIV-1 isolates NL4-3, BaL, AC10, SVBP6, SVBP8, SVBP11, SVBP12, SVBP14, SVBP15, SVBP17, SVBP18 and SVBP19 were generated as pseudoviruses using Env expression plasmids and the pSG3 vector. See Sanchez-Palomino S, et al., Vaccine 2011; 29:5250-5259. Cell-free virus neutralization by the antibody derivatives was tested by a standard TZM-bl based assay. See Li, 2005, supra. Briefly, in a 96-well culture plate, 100 of previously diluted antibody derivatives were preincubated with 50 μL of pseudovirus stock, using 200 TCID50 (tissue culture infectious doses) at 37° C. for one hour. Then, 100 containing 10,000 TZM-bl luciferase-reporter target cells per well were added. Plates were cultured at 37° C. and 5% CO2 for 48 hours. […] A luciferase substrate, Britelite Plus (PerkinElmer, Inc., Waltham, Mass., USA), was used for the readout. Non-linear fit of neutralization data was calculated using normalized values fitted to a one site inhibition curve with variable Hill slope. […]
# Briefly, in a 96-well culture plate, 100 μL of previously diluted plasma samples were preincubated with 50 μL of pseudovirus stock, using 200 TCID50 at 37° C. for one hour. […] A luciferase substrate, Britelite Plus (PerkinElmer, Inc., Waltham, Mass., USA), was used for the readout. Non-linear fit of neutralization data was calculated using normalized values fitted to a one site inhibition curve with variable Hill slope. […]
# HIV-1 strain BaL = experiment: Neutralization assay (TZM-bl, pseudovirus), BaL isolate; type: cell-based
# Method: HIV-1 isolates NL4-3, BaL, AC10, SVBP6, SVBP8, SVBP11, SVBP12, SVBP14, SVBP15, SVBP17, SVBP18 and SVBP19 were generated as pseudoviruses using Env expression plasmids and the pSG3 vector. […] Cell-free virus neutralization by the antibody derivatives was tested by a standard TZM-bl based assay. […] Briefly, in a 96-well culture plate, 100 of previously diluted antibody derivatives were preincubated with 50 μL of pseudovirus stock, using 200 TCID50 (tissue culture infectious doses) at 37° C. for one hour. Then, 100 containing 10,000 TZM-bl luciferase-reporter target cells per well were added. Plates were cultured at 37° C. and 5% CO2 for 48 hours. Serial dilutions of the antibody derivatives were tested, from 1000 to 0.1 ng/mL. TZM-bl reporter cells were treated with dextran (Sigma-Aldrich, Saint Louis, Mo., USA) to enhance infectivity. A luciferase substrate, Britelite Plus (PerkinElmer, Inc., Waltham, Mass., USA), was used for the readout. Non-linear fit of neutralization data was calculated using normalized values fitted to a one site inhibition curve with variable Hill slope. All statistical analyses and non-linear fitting were performed using the GraphPad Prism v5.0 software.
# [1] = system: panel of HIV subtype B viruses; experiment: Neutralization assay against panel of HIV subtype B viruses (SVBP isolates); type: cell-based, HIV-1
# Method: HIV-1 isolates NL4-3, BaL, AC10, SVBP6, SVBP8, SVBP11, SVBP12, SVBP14, SVBP15, SVBP17, SVBP18 and SVBP19 were generated as pseudoviruses using Env expression plasmids and the pSG3 vector. […] Cell-free virus neutralization by the antibody derivatives was tested by a standard TZM-bl based assay. […] Briefly, in a 96-well culture plate, 100 of previously diluted antibody derivatives were preincubated with 50 μL of pseudovirus stock, using 200 TCID50 (tissue culture infectious doses) at 37° C. for one hour. Then, 100 containing 10,000 TZM-bl luciferase-reporter target cells per well were added. Plates were cultured at 37° C. and 5% CO2 for 48 hours. Serial dilutions of the antibody derivatives were tested, from 1000 to 0.1 ng/mL. TZM-bl reporter cells were treated with dextran (Sigma-Aldrich, Saint Louis, Mo., USA) to enhance infectivity. A luciferase substrate, Britelite Plus (PerkinElmer, Inc., Waltham, Mass., USA), was used for the readout. Non-linear fit of neutralization data was calculated using normalized values fitted to a one site inhibition curve with variable Hill slope. All statistical analyses and non-linear fitting were performed using the GraphPad Prism v5.0 software. […]
substance,measurement,setting,value
"MOLECULE-0: CD4-IgG1 fusion protein, SEQ ID NO:11",blocking the infectivity of NL4-3 (in words),HIV-1 strain NL4-3,lower neutralizing activity
same,blocking the infectivity of BaL (in words),HIV-1 strain BaL,lower neutralizing activity
same,neutralization of panel of HIV subtype B isolates (in words),[1],unable to neutralize primary isolates at 100 ng/mL
